Assay results published in patent US20150079105A1, “TREATMENT OF ACUTE INFLAMMATION IN THE RESPIRATORY TRACT” (UCL Business PLC, priority 2012, published 2015).
Entries after “also recorded” stand apart in the source; their conditions may differ.

Columns and labels:
LPS challenged mice = assay: LPS-induced acute lung inflammation in mice: BAL fluid cell counts, MPO, serum albumin; type: in vivo; settings: 10 mg/kg i.p. immediately after LPS challenge; 3 h
naïve mice = assay: Intranasal administration of recombinant CCL2 or CCL7 to naïve mice, BAL fluid cell counts; type: in vivo; settings: 500 ng/mouse i.n., 3 h; for total cell number recovered from BAL fluid: compared to saline treated controls
Protocol: FIG. 15. Naïve mice were administered with either rCCL2 or rCCL7 (500 ng/mouse, i.n.) and 3 h later BAL fluid was recovered. BAL fluid total cell counts (A) and total neutrophils (B) were calculated from differential cell counts performed on cytospin preparations. The percentage of neutrophils in BAL fluid was also calculated (C). Differential cell counts were performed on cytospin preparations following saline (D), rCCL2 (E) or rCCL7 (F) administration. Data were analysed by one way ANOVA with Newman-Keuls post hoc test: *p<0.05, **p<0.01,*** p<0.001. Arrows indicate: N, neutrophil; M, monocyte/macrophage.
In order to determine the whether CCL2 and CCL7 are able to directly recruit leukocytes into the lung, recombinant CCL2 or CCL7 was administered into the lungs of naïve mice and sampled the BAL fluid after 3 h. […] Differential cell counts were performed on cytospin preparations following saline (FIG. 15D), rCCL2 (FIG. 15E) or rCCL7 (FIG. 15F) administration.

human neutrophils = assay: Human neutrophil chemotaxis (ChemoTX) towards recombinant human chemokines; type: cell-based; settings: 50 ng/ml; 45 min; 5×10^4 neutrophils per well
Protocol: FIG. 17. Healthy human volunteers were challenged with nebulized 0.9% saline […] (final LPS dose was 50 μg) and BAL fluid collected 6 hours later. CCL7 protein levels in BAL fluid from saline-treated or LPS-challenged human volunteers were measured by ELISA (a). Human neutrophil chemotaxis was measured across 5 μm membranes (ChemoTX, NeuroProbe) in response to recombinant human (rh) CXCL8 or rhCCL7 (b). Neutrophil chemotaxis towards LPS-treated human BAL fluid was measured in the presence of neutralizing anti-CXCL8 or anti-CCL7 antibodies (c). BAL fluid was collected from patients suffering with ALI on intensive care units. CCL7 protein (d) and CCL2 protein (f) in ALI BAL fluid was measured by ELISA. Neutrophil chemotaxis towards BAL fluid obtained from patients with ALI was measured in the presence of neutralizing anti-CXCL8 and ant-CCL7 antibodies (e). […]
Although it is widely accepted that CXCL8 (IL-8) is an important chemokine in human neutrophilic lung disease (Miller, E. J. et al Am. Rev. Respir. Dis. 146, 427-432 (1992)), it is far from clear whether other chemokines are associated with disease pathogenesis. […] For these studies, CCL7 was measured by ELISA in BAL fluid from healthy volunteers challenged with LPS (50 μg) at 6 hours as previously described (Shyamsundar, M. et al Am. J. Respir. Crit Care Med. 179, 1107-1114 (2009)). […]

Row | Compound | recruitment of neutrophils into lung airspaces (naïve mice) | total cell number recovered from BAL fluid (naïve mice) | migration of neutrophils compared to media alone (human neutrophils) | also measured
1 | CCOC(=O)N[C@@H]1CC[C@@H]2[C@@H](C1)C[C@H]1C(=O)O[C@H](C)[C@H]1[C@H]2/C=C/c1ccc(-c2cccc(F)c2)cn1 [SCH530348] |  |  |  | neutrophil numbers in the airspaces (BAL fluid) (LPS challenged mice): significantly decreased; total cell numbers in the airspaces (BAL fluid) (LPS challenged mice): significantly decreased
2 | rCCL2: recombinant CCL2 | resulted in the recruitment of a neutrophils | increased; also recorded: greater number of leukocytes compared to rCCL7 |  | 
3 | CCL7: Recombinant human CCL7 (Peprotech) |  |  | did not influence | 
4 | CXCL8: Recombinant human CXCL8 (IL-8) (Peprotech) |  |  | increased | 
5 | rCCL7: recombinant CCL7 | resulted in the recruitment of a neutrophils | increased |  | neutrophils as a percentage of total cells recovered from BAL fluid (naïve mice): preferential accumulation of neutrophils compared to rCCL2
